In patent US7118895B2, “Process for producing aglycon by using diglycosidase and flavor-improved food containing the aglycon and converting agent to be used in the process” (Amano Enzyme Inc., priority 2000, dated 2006):

System: Crude diglycosidase
Experiment: Examination of substrate concentration in the conversion into isoflavone aglycons by diglycosidase using soybean materials;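 also: percent of the isoflavone family total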
Assay type: biochemical, Penicillium multicolor IAM7153
Conditions: concentrated soybean protein
Procedure: Into 20 mM acetate buffer of pH 4.0 was suspended 0.1 g, 0.25 g, 0.5 g, 1.0 g, or 1.5 g of each of various soybean materials (roasted soy flour (manufactured by Fuji Shokuryo K.K.), soymilk (manufactured by Gitoh Shokuhin K.K.), defatted soybean (manufactured by Fuji Seiyu K.K.), concentrated soybean protein (manufactured by Fuji Seiyu K.K.)). The pH of the suspension was measured and the liquid volume was adjusted to 4.5 mL while the pH was adjusted to 4.0 with 1N hydrochloric acid. An enzyme solution wherein diglycosidase activity of crude diglycosidase was adjusted to 1.88 AU/mL was added thereto in an amount of 0.5 mL, whereby the final liquid volume was 5.0 mL. Namely, the ratio of the soybean material in the reaction mixture was 2%, 5%, 10%, 20%, or 30% (w/v). The whole was reacted at 55° C. under shaking. To 5 mL of the reaction mixture was added 7 mL of ethanol after 0, 1, 3, and 6 hours of the reaction. After ultrasonication, the mixture was thoroughly mixed. It was subjected to centrifugal separation at 2,000 rpm and room temperature for 5 minutes. Then, […] of the supernatant was placed in a 1.5 mL microtube and was subjected to centrifugal separation at 15,000 rpm and 4° C. for 10 minutes. The supernatant was filtered through a filter and each sample was suitably diluted by a factor of 1 to 6 depending on the substrate concentration. Fifty μL of the diluted solution was analyzed by HLPC (Tables 27 to 38).

- Decomposition efficiency: ratio of each glycoside/aglycon within its isoflavone family (substrate concentration 2%, heat treatment of enzyme no, reaction time 0 h): not detected
- Decomposition efficiency: ratio of each glycoside/aglycon within its isoflavone family (substrate concentration 2%, heat treatment of enzyme no, reaction time 1 h): not detected
- Decomposition efficiency: ratio of each glycoside/aglycon within its isoflavone family (substrate concentration 2%, heat treatment of enzyme no, reaction time 3 h): not detected
- Decomposition efficiency: ratio of each glycoside/aglycon within its isoflavone family (substrate concentration 2%, heat treatment of enzyme no, reaction time 6 h): not detected
- Decomposition efficiency: ratio of each glycoside/aglycon within its isoflavone family (substrate concentration 2%, heat treatment of enzyme yes, reaction time 6 h): not detected
- Decomposition efficiency: ratio of each glycoside/aglycon within its isoflavone family (substrate concentration 5%, heat treatment of enzyme no, reaction time 0 h): not detected
- Decomposition efficiency: ratio of each glycoside/aglycon within its isoflavone family (substrate concentration 5%, heat treatment of enzyme no, reaction time 1 h): not detected
- Decomposition efficiency: ratio of each glycoside/aglycon within its isoflavone family (substrate concentration 5%, heat treatment of enzyme no, reaction time 3 h): not detected
- Decomposition efficiency: ratio of each glycoside/aglycon within its isoflavone family (substrate concentration 5%, heat treatment of enzyme no, reaction time 6 h): not detected
- Decomposition efficiency: ratio of each glycoside/aglycon within its isoflavone family (substrate concentration 5%, heat treatment of enzyme yes, reaction time 6 h): not detected
- Decomposition efficiency: ratio of each glycoside/aglycon within its isoflavone family (substrate concentration 10%, heat treatment of enzyme no, reaction time 0 h): not detected
- Decomposition efficiency: ratio of each glycoside/aglycon within its isoflavone family (substrate concentration 10%, heat treatment of enzyme no, reaction time 1 h): not detected
- Decomposition efficiency: ratio of each glycoside/aglycon within its isoflavone family (substrate concentration 10%, heat treatment of enzyme no, reaction time 3 h): not detected
- Decomposition efficiency: ratio of each glycoside/aglycon within its isoflavone family (substrate concentration 10%, heat treatment of enzyme no, reaction time 6 h): not detected
- Decomposition efficiency: ratio of each glycoside/aglycon within its isoflavone family (substrate concentration 10%, heat treatment of enzyme yes, reaction time 6 h): not detected
- Decomposition efficiency: ratio of each glycoside/aglycon within its isoflavone family (substrate concentration 20%, heat treatment of enzyme no, reaction time 0 h): not detected
- Decomposition efficiency: ratio of each glycoside/aglycon within its isoflavone family (substrate concentration 20%, heat treatment of enzyme no, reaction time 1 h): not detected
- Decomposition efficiency: ratio of each glycoside/aglycon within its isoflavone family (substrate concentration 20%, heat treatment of enzyme no, reaction time 3 h): not detected
- Decomposition efficiency: ratio of each glycoside/aglycon within its isoflavone family (substrate concentration 20%, heat treatment of enzyme no, reaction time 6 h): not detected
- Decomposition efficiency: ratio of each glycoside/aglycon within its isoflavone family (substrate concentration 20%, heat treatment of enzyme yes, reaction time 6 h): not detected
- Decomposition efficiency: ratio of each glycoside/aglycon within its isoflavone family (substrate concentration 30%, heat treatment of enzyme no, reaction time 0 h): not detected
- Decomposition efficiency: ratio of each glycoside/aglycon within its isoflavone family (substrate concentration 30%, heat treatment of enzyme no, reaction time 1 h): not detected
- Decomposition efficiency: ratio of each glycoside/aglycon within its isoflavone family (substrate concentration 30%, heat treatment of enzyme no, reaction time 3 h): not detected
- Decomposition efficiency: ratio of each glycoside/aglycon within its isoflavone family (substrate concentration 30%, heat treatment of enzyme no, reaction time 6 h): not detected
- Decomposition efficiency: ratio of each glycoside/aglycon within its isoflavone family (substrate concentration 30%, heat treatment of enzyme yes, reaction time 6 h): not detected
SMILES: O=C(O)CC(=O)OC[C@H]1O[C@@H](Oc2ccc3c(=O)c(-c4ccc(O)cc4)coc3c2)[C@H](O)[C@@H](O)[C@@H]1O [malonydaidzin]
